{"source": "paper PMC11402846", "about": "“Does a postmortem redistribution affect the concentrations of the 7 azaindole-derived synthetic cannabinoid 5F-MDMB-P7AICA in tissues and body fluids following pulmonary administration to pigs?” (Archives of Toxicology, 2024)", "key": {"P-glycoprotein": {"tested_on": "P-glycoprotein", "parameters": "method as in unpublished data of the authors", "settings": "ref unpublished data of the authors; cited from earlier work"}, "[1]": {"parameters": "method as in Walle et al. [2023]", "settings": "authentic fatal case, comparable survival time after drug intake; ref Walle et al. [2023]; cited from earlier work"}, "[2]": {"test": "Perimortem and postmortem concentrations in tissues and body fluids after pulmonary administration of 5F-MDMB-P7AICA to pigs (LC-MS/MS)", "assay_type": "in vivo", "settings": "pig", "description": "The experiments were conducted in compliance with the German legislation on protection of animals and the National Institutes of Health Guide for the Care and Use of Laboratory Animals (permission number 32/2018). Six domestic male pigs (Swabian Hall strain; body weight [BW] 40–51.2 kg, 3 months old) were kept with free access to water and standard daily food (OlymPig fattening feed, Raiffeisen, Münster, Germany). One night prior to the experiments, the animals were kept fasting. […] The room temperature was 22 ± 1 °C with a humidity of 55 ± 10%.\nAs previously described (Doerr et al. [2020]; Schaefer et al. [2019], [2020a]), an ethanolic solution of 5 mg/mL 5F-MDMB-P7AICA was prepared. An aliquot of 1.600–2.048 mL was filled up with ethanol to a total volume of 2 mL, if needed to achieve a concentration of 200 µg per kg BW. The SC was administered inhalatively over 6.5–8 min, using a M-Neb flow + ventilation ultrasonic nebulizer MN-300/7 (Nebutec, Elsenfeld, Germany) in the inspiration-triggered mode.\nAnimal euthanasia was conducted eight hours after the drug administration using T 61 (embutramide, 0.12 mL/kg BW, Intervet Deutschland GmbH, Unterschleißheim, Germany). Afterwards, the abdominal cavity was opened. Samples of the following organs, tissues and body fluids were collected (PMI 0) and stored at − 20 °C until further analysis: Brain (cerebrum), lungs and liver with no differentiation between the lobes, kidneys, muscle tissue (from the hindleg), adipose tissue (subcutaneous (sc), dorsal, perirenal), bile fluid, duodenum content, urine (only at PMI 0) and PB (V. jugularis) as well as CB.\nThe abdominal cavity was sutured leaving the organs in situ and the animal bodies were kept at room temperature in a supine position. Analogously, samples were taken again after 24, 48 and 72 h (PMI 1–3), respectively. Yet, PM PB specimens were obtained by sampling the coagulated blood from the V. femoralis or V. brachialis. For this purpose, the whole vessel was sampled and the blood was drawn therefrom using a pipette with a wide lumen.\nSpecimens were prepared according to a previous published method (Schaefer et al. [2017], [2019], [2020a]) with changes regarding the applied buffers and the amount of acetonitrile. An amount of 2 g of solid tissue (brain, lung, liver, kidney and muscle tissue) was homogenized (1:5 w/w with water), respectively and 1 g of body fluids (bile fluid, duodenum content, and urine) was diluted (1:10 w/w for bile and duodenum content, 1:5 w/w for urine, respectively, with water). The samples were stored at − 20 °C.\nTo determine the standard addition calibration curves, four 0.5 g aliquots were added to 20 µL of an ethanolic stable-isotope-labeled internal standard solution (SIL-IS, 1 ng/20 µL AB-FUBINACA-d4) and 25 µL of ethanol or an ethanolic solution of the analytes.\nSubsequently, the solution was mixed with 500 µL of acetate buffer and 50 µL of β-glucuronidase/arylsulfatase and incubated for 2 h at 60 °C to induce enzymatic hydrolysis of the glucuronidated DBA (phase-II metabolite).\nFor the following protein precipitation, the samples were mixed with 500 µL of acetonitrile and centrifuged at 3500g for 8 min. The supernatants were transferred to 1 mL phosphate buffer (pH 9) vortexed and centrifuged at 3500g for 8 min again.\nSolid phase extraction (SPE) was carried out using Strata C18 end capped cartridges (Phenomenex, Aschaffenburg, Germany), previously conditioned with 2 × 3 mL methanol and 3 mL phosphate buffer. After loading the samples, the columns were washed with 3 mL phosphate buffer, 3 mL acetic acid (0.25 M) and 3 mL deionized water, respectively. 60 μL acetone was added and columns were dried for 5 min using negative pressure (about 33 kPa). Thereafter, the analytes were eluted with a mixture of 1.5 mL methanol-acetone (1:1, v/v) and the eluate was evaporated under a gentle stream of nitrogen at 60 °C. […]"}, "[3]": {"settings": "200 µg/kg BW inhalative, PMI 0 (8 h after administration)"}, "[4]": {"settings": "200 µg/kg BW inhalative, PMI 1 (24 h after euthanasia, room temperature)"}, "[5]": {"settings": "200 µg/kg BW inhalative, PMI 2 (48 h after euthanasia, room temperature)"}, "[6]": {"settings": "200 µg/kg BW inhalative, PMI 3 (72 h after euthanasia, room temperature)"}}}
{"smiles": "COC(=O)C(NC(=O)c1cn(CCCCCF)c2ncccc12)C(C)(C)C", "note": "(stereo not shown) [5F-MDMB-P7AICA, methyl[2-[1-(5-fluoropentyl)-1H-pyrrolo[2,3-b]pyridin-3-yl]formamido]-3,3-dimethylbutanoate]", "values": [{"measurement": "substrate of the P-glycoprotein", "setting": "P-glycoprotein", "result": "is a substrate of the P-glycoprotein"}, {"measurement": "CB concentration in fatal case", "setting": "[1]", "result": 0.69, "unit": "ng/mL"}, {"measurement": "PB concentration in fatal case", "setting": "[1]", "result": 1.2, "unit": "ng/mL"}, {"measurement": "Mean concentration ± SD in CB (central blood)", "setting": "[2]; [3]", "result": "0.21 ± 0.10", "unit": "n = 6 ng/mL"}, {"measurement": "Mean concentration ± SD in bile fluid", "setting": "[2]; [3]", "result": "11 ± 9.9", "unit": "n = 6 ng/g"}, {"measurement": "Mean concentration ± SD in brain", "setting": "[2]; [3]", "result": "0.33 ± 0.15", "unit": "n = 6 ng/g"}, {"measurement": "Mean concentration ± SD in dorsal fat", "setting": "[2]; [3]", "result": "30 ± 16", "unit": "n = 6 ng/g"}, {"measurement": "Mean concentration ± SD in duodenum content", "setting": "[2]; [3]", "result": "2.7 ± 3.1", "unit": "n = 6 ng/g"}, {"measurement": "Mean concentration ± SD in kidney", "setting": "[2]; [3]", "result": "No parent compound could be found and neg"}, {"measurement": "Mean concentration ± SD in liver", "setting": "[2]; [3]", "result": "0.16 ± 0.043", "unit": "n = 3 ng/g"}, {"measurement": "Mean concentration ± SD in lung", "setting": "[2]; [3]", "result": "0.41 ± 0.26", "unit": "n = 6 ng/g"}, {"measurement": "Mean concentration ± SD in muscle", "setting": "[2]; [3]", "result": "0.62 ± 0.10", "unit": "n = 6 ng/g"}, {"measurement": "Mean concentration ± SD in perirenal fat", "setting": "[2]; [3]", "result": "33 ± 31", "unit": "n = 6 ng/g"}, {"measurement": "Mean concentration ± SD in s.c. fat", "setting": "[2]; [3]", "result": "51 ± 30", "unit": "n = 6 ng/g"}, {"measurement": "Mean concentration ± SD in urine", "setting": "[2]; [3]", "result": "No parent compound could be found and neg"}, {"measurement": "Mean concentration ± SD in CB (central blood)", "setting": "[2]; [4]", "result": "0.25 ± 0.10", "unit": "n = 5 ng/mL"}, {"measurement": "Mean concentration ± SD in PB (peripheral blood)", "setting": "[2]; [4]", "result": "0.67 ± 0.37", "unit": "n = 6 ng/mL"}, {"measurement": "Mean concentration ± SD in bile fluid", "setting": "[2]; [4]", "result": "3.5 ± 3.1", "unit": "n = 6 ng/g"}, {"measurement": "Mean concentration ± SD in brain", "setting": "[2]; [4]", "result": "0.23 ± 0.10", "unit": "n = 6 ng/g"}, {"measurement": "Mean concentration ± SD in dorsal fat", "setting": "[2]; [4]", "result": "35 ± 26", "unit": "n = 6 ng/g"}, {"measurement": "Mean concentration ± SD in duodenum content", "setting": "[2]; [4]", "result": "0.44 ± 0.22", "unit": "n = 6 ng/g"}, {"measurement": "Mean concentration ± SD in kidney", "setting": "[2]; [4]", "result": "0.090–0.10 n = 2 ng/g"}, {"measurement": "Mean concentration ± SD in liver", "setting": "[2]; [4]", "result": "0.21–0.29 n = 2 ng/g"}, {"measurement": "Mean concentration ± SD in lung", "setting": "[2]; [4]", "result": "0.50 ± 0.085", "unit": "n = 3 ng/g"}, {"measurement": "Mean concentration ± SD in muscle", "setting": "[2]; [4]", "result": "0.77 ± 0.28", "unit": "n = 6 ng/g"}, {"measurement": "Mean concentration ± SD in perirenal fat", "setting": "[2]; [4]", "result": "30 ± 20", "unit": "n = 6 ng/g"}, {"measurement": "Mean concentration ± SD in s.c. fat", "setting": "[2]; [4]", "result": "53 ± 43", "unit": "n = 6 ng/g"}, {"measurement": "Mean concentration ± SD in CB (central blood)", "setting": "[2]; [5]", "result": "0.20 ± 0.090", "unit": "n = 5 ng/mL"}, {"measurement": "Mean concentration ± SD in PB (peripheral blood)", "setting": "[2]; [5]", "result": "0.58 ± 0.35", "unit": "n = 6 ng/mL"}, {"measurement": "Mean concentration ± SD in brain", "setting": "[2]; [5]", "result": "0.10 ± 0.065", "unit": "n = 6 ng/g"}, {"measurement": "Mean concentration ± SD in dorsal fat", "setting": "[2]; [5]", "result": "25 ± 15", "unit": "n = 6 ng/g"}, {"measurement": "Mean concentration ± SD in duodenum content", "setting": "[2]; [5]", "result": "0.59 ± 0.48", "unit": "n = 5 ng/g"}, {"measurement": "Mean concentration ± SD in kidney", "setting": "[2]; [5]", "result": "0.17 ± 0.16", "unit": "n = 5 ng/g"}, {"measurement": "Mean concentration ± SD in liver", "setting": "[2]; [5]", "result": "1.1 ± 2.0", "unit": "n = 6 ng/g"}, {"measurement": "Mean concentration ± SD in lung", "setting": "[2]; [5]", "result": "0.65 ± 0.37", "unit": "n = 5 ng/g"}, {"measurement": "Mean concentration ± SD in muscle", "setting": "[2]; [5]", "result": "1.0 ± 0.67", "unit": "n = 6 ng/g"}, {"measurement": "Mean concentration ± SD in perirenal fat", "setting": "[2]; [5]", "result": "32 ± 35", "unit": "n = 6 ng/g"}, {"measurement": "Mean concentration ± SD in s.c. fat", "setting": "[2]; [5]", "result": "40 ± 28", "unit": "n = 6 ng/g"}, {"measurement": "Mean concentration ± SD in CB (central blood)", "setting": "[2]; [6]", "result": "0.24 ± 0.11", "unit": "n = 5 ng/mL"}, {"measurement": "Mean concentration ± SD in PB (peripheral blood)", "setting": "[2]; [6]", "result": "0.43 ± 0.16", "unit": "n = 6 ng/mL"}, {"measurement": "Mean concentration ± SD in brain", "setting": "[2]; [6]", "result": "0.16 ± 0.16", "unit": "n = 4 ng/g"}, {"measurement": "Mean concentration ± SD in dorsal fat", "setting": "[2]; [6]", "result": "33 ± 27", "unit": "n = 6 ng/g"}, {"measurement": "Mean concentration ± SD in duodenum content", "setting": "[2]; [6]", "result": "0.89 ± 0.71", "unit": "n = 6 ng/g"}, {"measurement": "Mean concentration ± SD in kidney", "setting": "[2]; [6]", "result": "0.23 ± 0.088", "unit": "n = 5 ng/g"}, {"measurement": "Mean concentration ± SD in liver", "setting": "[2]; [6]", "result": "0.44 ± 0.18", "unit": "n = 5 ng/g"}, {"measurement": "Mean concentration ± SD in lung", "setting": "[2]; [6]", "result": "0.71 ± 0.54", "unit": "n = 5 ng/g"}, {"measurement": "Mean concentration ± SD in muscle", "setting": "[2]; [6]", "result": "2.3 ± 2.1", "unit": "n = 6 ng/g"}, {"measurement": "Mean concentration ± SD in perirenal fat", "setting": "[2]; [6]", "result": "22 ± 19", "unit": "n = 6 ng/g"}, {"measurement": "Mean concentration ± SD in s.c. fat", "setting": "[2]; [6]", "result": "35 ± 26", "unit": "n = 6 ng/g"}, {"measurement": "Concentration in bile fluid", "setting": "[2]; 200 µg/kg BW inhalative, PMI 3 (72 h after euthanasia, room temperature), only sampled from 2 pigs", "result": "3.6–7.4 n = 2^2 ng/g"}, {"measurement": "Mean concentration ± SD in PB (peripheral blood)", "setting": "[2]; 5F-MDMB-P7AICA 200 µg/kg BW inhalative, PMI 0 (8 h after administration)", "result": "0.57 ± 0.19", "unit": "n = 6 ng/mL"}, {"measurement": "Postmortem redistribution (PMR)", "setting": "[2]; 3 days storage at room temperature", "result": "no relevant PMR was observed"}, {"measurement": "central-to-peripheral blood (C/P) concentration ratio", "setting": "[2]; PMI 0", "result": "lower than 1"}, {"measurement": "liver-to-peripheral blood (L/P) ratio", "setting": "[2]; PMI 0", "result": "< 5"}, {"measurement": "C/P concentration ratio", "setting": "[2]; PMI 1–3", "result": "< 1"}, {"measurement": "L/P concentration ratio", "setting": "[2]; PMI 1–3", "result": "< 5"}, {"measurement": "Concentration change in liver specimens", "setting": "[2]; PMI 2 and 3 versus PMI 0, p < 0.05", "result": "significant higher"}, {"measurement": "Concentration change in muscle tissue", "setting": "[2]; from PMI 0 to PMI 3, p < 0.05", "result": "significantly increased"}]}
